The target of one experiment is T1, D-3-phosphoglycerate dehydrogenase (Homo sapiens, UniProt O43175).
T1 sequence (O43175 whole entry): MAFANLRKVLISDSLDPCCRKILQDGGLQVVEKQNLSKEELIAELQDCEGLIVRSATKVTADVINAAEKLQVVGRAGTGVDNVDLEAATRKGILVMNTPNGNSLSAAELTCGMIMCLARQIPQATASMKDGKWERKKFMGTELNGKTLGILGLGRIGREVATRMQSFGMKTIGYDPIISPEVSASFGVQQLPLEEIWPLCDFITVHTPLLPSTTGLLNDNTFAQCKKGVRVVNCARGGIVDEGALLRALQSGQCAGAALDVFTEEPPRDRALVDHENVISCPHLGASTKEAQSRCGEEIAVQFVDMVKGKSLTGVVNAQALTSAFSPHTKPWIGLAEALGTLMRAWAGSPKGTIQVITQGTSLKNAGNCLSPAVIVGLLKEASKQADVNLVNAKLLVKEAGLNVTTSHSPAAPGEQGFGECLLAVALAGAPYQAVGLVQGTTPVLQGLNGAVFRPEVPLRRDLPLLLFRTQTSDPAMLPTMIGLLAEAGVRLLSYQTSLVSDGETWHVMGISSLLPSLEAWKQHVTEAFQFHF
Briefly: Inhibition of human PHGDH using 3-PG as substrate by fluorescence based analysis.
Turning to `O=C(c1ccc(Cl)cc1)N1CCOCC1` [(4-CHLOROPHENYL)(MORPHOLINO)METHANONE], the IC50 (commonly the concentration that gives 50% inhibition) came to 10.4 µM.

The next experiment has as its target T1, D-3-phosphoglycerate dehydrogenase. Briefly: Binding affinity to human PHGDH expressed in Escherichia coli BL21 incubated for 30 mins by MST assay.
Regarding `COC(=O)[C@H](C)N1Cc2c(O)c(O)c(O)c(C)c2C1=O`, the Kd (usually the constant that tells how readily two partners part at equilibrium) came out at 15.2 µM.

A further experiment has the same target. As to the kind of experiment: Inhibition of human PHGDH by fluorescence based analysis.
`CC1CCC(C)N1C(=S)SSC(=S)N1C(C)CCC1C` (configuration not stated) had an IC50 of 0.42 µM.
On to `CN(C(=S)SSC(=S)N(C)C1CCCCC1)C1CCCCC1`, for which the concentration for half-maximal inhibition (IC50) was determined as 1.01 µM.
Molecule `CN1CCN(C(=S)SSC(=S)N2CCN(C)CC2)CC1` registered an IC50 of 0.17 µM.
Take `S=C(SSC(=S)N1CCCCC1)N1CCCCC1` [BIS(PIPERIDINYLTHIOCARBONYL)DISULFIDE]: the IC50 came out at 0.51 µM.
For the molecule `S=C(Nc1ccccc1)SSC(=S)Nc1ccccc1`, the IC50 was found to be 0.36 µM.
Turning to `S=C(SSC(=S)N1CCN(C2CCCCC2)CC1)N1CCN(C2CCCCC2)CC1`, the IC50 came out at 0.57 µM.
In turn, `CC1CCN(C(=S)SSC(=S)N2CCC(C)CC2)CC1` yielded a concentration for half-maximal inhibition (IC50) of 0.58 µM.
`S=C(SSC(=S)N1CCN(Cc2ccccc2)CC1)N1CCN(Cc2ccccc2)CC1` had a concentration for half-maximal inhibition (IC50) of 22.5 µM.
Take `S=C(SSC(=S)N1CCOCC1)N1CCOCC1`: the concentration for half-maximal inhibition (IC50) is 0.21 µM.
In the case of `CN(C(=S)SSC(=S)N(C)c1ccccc1)c1ccccc1`, the 50% inhibitory concentration (IC50) was found to be 0.42 µM.
`S=C(SSC(=S)N1CCN(c2ccccc2)CC1)N1CCN(c2ccccc2)CC1` displayed a concentration for half-maximal inhibition (IC50) of 0.41 µM.
`CCN(CC)C(=S)CSC(=S)N(CC)CC` [(DIETHYLTHIOCARBAMOYL)METHYLENE DIETHYLCARBAMODITHIOATE] yielded an IC50 of 36.4 µM.
The molecule `S=C(SSC(=S)N1CCSCC1)N1CCSCC1` registered an IC50 of 0.34 µM.
The same measure, in the same setting: the result for `S=C(SSC(=S)N(C1CCCCC1)C1CCCCC1)N(C1CCCCC1)C1CCCCC1` reads 1.39 µM; that for `CCN(CC)C(=O)CSC(=S)N(CC)CC` [(DIETHYLCARBAMOYL)METHYLENE DIETHYLCARBAMODITHIOATE], > 1000 µM.
As for `CCN(CC)C(=S)SCSC(=S)N(CC)CC`, the midpoint of inhibition, the IC50, lay at 45.9 µM.
In turn, `S=C(SSC(=S)N1CCc2ccccc2C1)N1CCc2ccccc2C1` had an IC50 of 0.38 µM.
Regarding `CN1CCN(C(=S)SCSC(=S)N2CCNCC2)CC1`, inhibition was half-maximal at 67.3 µM (IC50).

For a further experiment the target is unchanged. Briefly: Binding affinity to PHGDH (unknown origin) by isothermal titration calorimetry. Background: Isothermal titration calorimetry measures the heat released or taken up as one component is titrated into another.
For `NC(=O)c1cc2ccccc2s1`, binding was put at a Kd of 470 µM.

Another experiment has the same target. As to the kind of experiment: Binding affinity to human PHGDH (3 to 314 residues) expressed in Escherichia coli Rosetta (DE3) by isothermal titration calorimetry.
In turn, `COc1ccc(NC(C)=O)cc1Cl` came in with a Kd of 1300 µM.
Take `Cc1cncc(Cc2cccc(CO)c2)n1`: the affinity, expressed as Kd, was 16600 µM.

A further experiment has the same target. As to the kind of experiment: Inhibition of human PHGDH expressed in Escherichia coli BL21 using 3-PG as substrate incubated for 30 mins by fluorescence based analysis.
`COC(=O)[C@H](C)N1Cc2c(O)c(O)c(O)c(C)c2C1=O` showed an IC50 of 9.76 µM.
`C[C@H]1C(=O)OC([C@@H](O)[C@](C)(O)C2[C@@H](O)CC3C4C[C@H]5O[C@]56[C@@H](O)C=CC(=O)[C@]6(C)C4CC[C@@]32C)[C@@H]1C` (some centres not stated) displayed an IC50 of 1.66 µM.

The next experiment has the same target. Briefly: Inhibition of human PHGDH using 3-PG as substrate incubated for 60 mins by fluorescence based analysis.
For the molecule `O=C(c1cc(-c2ccccc2)n[nH]1)N1CCc2cc(S(=O)(=O)Nc3ncccn3)ccc21`, the IC50 was > 100 µM.
As for `Cc1cc(C)nc(NS(=O)(=O)c2ccc(NC(=O)c3cc(-c4ccccc4O)n[nH]3)cc2)n1`, the IC50 was < 50 µM.

For the origin of these results see ChEMBL document CHEMBL5230140, “A retrospective overview of PHGDH and its inhibitors for regulating cancer metabolism” (Eur J Med Chem, 2021).
